Data taken from PubChem BioAssay (NCI).
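GI50 marks 50% less growth. TGI marks complete inhibition of growth.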

Key:
Test in all cases: NCI tumour cell line growth inhibition, 384-well format
[1] = test system: IGROV1 ovarian
[2] = test system: HOP-92 NSCLC
[3] = test system: DU-145 prostate
[4] = test system: SN12C renal
[5] = test system: HCT-116 colon
[6] = test system: RPMI-8226 leukemia
[7] = test system: PC-3 prostate
[8] = test system: BT-549 breast
[9] = test system: ACHN renal
[10] = test system: MDA-MB-435 melanoma
[11] = test system: COLO 205 colon
[12] = test system: NCI/ADR-RES ovarian
[13] = test system: HL-60(TB) leukemia
[14] = test system: KM12 colon
[15] = test system: SNB-75 CNS
[16] = test system: SNB-19 CNS
[17] = test system: NCI-H460 NSCLC
[18] = test system: A498 renal
[19] = test system: MDA-MB-231 breast
[20] = test system: UO-31 renal
[21] = test system: MCF7 breast
[22] = test system: NCI-H322M lung
[23] = test system: RXF 393 renal
[24] = test system: TK-10 renal
[25] = test system: OVCAR-3 ovarian
[26] = test system: SK-MEL-5 melanoma
[27] = test system: HOP-62 NSCLC
[28] = test system: SK-OV-3 ovarian
[29] = test system: OVCAR-5 ovarian
[30] = test system: SF-268 CNS
[31] = test system: HT29 colon
[32] = test system: HS 578T breast
[33] = test system: UACC-62 melanoma
[34] = test system: SW-620 colon
[35] = test system: MDA-MB-468 breast
[36] = test system: M14 melanoma
[37] = test system: U251 glioblastoma
[38] = test system: HCC-2998 colon
[39] = test system: SF-295 CNS
[40] = test system: HCT-15 colon
[41] = test system: 786-0 renal
[42] = test system: CCRF-CEM leukemia
[43] = test system: SK-MEL-28 melanoma
[44] = test system: OVCAR-4 ovarian
[45] = test system: NCI-H226 lung
[46] = test system: CAKI-1 renal
[47] = test system: EKVX NSCLC
[48] = test system: UACC-257 melanoma
[49] = test system: MOLT-4 leukemia
[50] = test system: MALME-3M melanoma
[51] = test system: A549 NSCLC
[52] = test system: NCI-H522 lung
[53] = test system: SF-539 CNS
[54] = test system: K-562 leukemia
[55] = test system: OVCAR-8 ovarian
[56] = test system: NCI-H23 lung
[57] = test system: T-47D breast
[58] = test system: LOX IMVI melanoma
[59] = test system: SR leukemia

Compound: O=C(Nc1ccc(Oc2ccc(F)cc2)cc1)[C@@H]1C[C@@H](Cc2ccc(F)cc2)CN1C(=O)Cn1ccnn1
- GI50 [1]: 7.92 µM
- TGI [1]: 20.8 µM
- GI50 [2]: 3.72 µM
- TGI [2]: 12.1 µM
- GI50 [3]: 10.8 µM
- TGI [3]: 26.7 µM
- GI50 [4]: 12.9 µM
- TGI [4]: 25.8 µM
- GI50 [5]: 5.34 µM
- TGI [5]: 16.7 µM
- GI50 [6]: 3.81 µM
- TGI [6]: 9.88 µM
- GI50 [7]: 4.69 µM
- TGI [7]: 15 µM
- GI50 [8]: 7.1 µM
- TGI [8]: 18.7 µM
- GI50 [9]: 4.88 µM
- TGI [9]: 17.4 µM
- GI50 [10]: 13.3 µM
- TGI [10]: 26.3 µM
- GI50 [11]: 8.04 µM
- TGI [11]: 21.4 µM
- GI50 [12]: 16.1 µM
- TGI [12]: 36.7 µM
- GI50 [13]: 2.44 µM
- TGI [13]: 4.34 µM
- GI50 [14]: 8.19 µM
- TGI [14]: 20.8 µM
- GI50 [15]: 7.44 µM
- TGI [15]: 20.7 µM
- GI50 [16]: 11.6 µM
- TGI [16]: 25.9 µM
- GI50 [17]: 5.39 µM
- TGI [17]: 16.8 µM
- GI50 [18]: 5.24 µM
- TGI [18]: 16.5 µM
- GI50 [19]: 13.5 µM
- TGI [19]: 27.1 µM
- GI50 [20]: 10.8 µM
- TGI [20]: 22.9 µM
- GI50 [21]: 4.1 µM
- TGI [21]: 14.5 µM
- GI50 [22]: 14.8 µM
- TGI [22]: 30.1 µM
- GI50 [23]: 3.77 µM
- TGI [23]: 11.4 µM
- GI50 [24]: 11.1 µM
- TGI [24]: 24.2 µM
- GI50 [25]: 7.5 µM
- TGI [25]: 19.5 µM
- GI50 [26]: 8.64 µM
- TGI [26]: 21 µM
- GI50 [27]: 6.4 µM
- TGI [27]: 18.2 µM
- GI50 [28]: 12.7 µM
- TGI [28]: 28.1 µM
- GI50 [29]: 14.7 µM
- TGI [29]: 28.3 µM
- GI50 [30]: 2.52 µM
- TGI [30]: 7.96 µM
- GI50 [31]: 3.46 µM
- TGI [31]: 11.7 µM
- GI50 [32]: 7.78 µM
- TGI [32]: 19.6 µM
- GI50 [33]: 13.2 µM
- TGI [33]: 26.1 µM
- GI50 [34]: 16.1 µM
- TGI [34]: 29.8 µM
- GI50 [35]: 6.95 µM
- TGI [35]: 18.8 µM
- GI50 [36]: 7.23 µM
- TGI [36]: 19.8 µM
- GI50 [37]: 4.94 µM
- TGI [37]: 16.3 µM
- GI50 [38]: 4.57 µM
- TGI [38]: 14.6 µM
- GI50 [39]: 7.16 µM
- TGI [39]: 19.5 µM
- GI50 [40]: 6.73 µM
- TGI [40]: 21.9 µM
- GI50 [41]: 4.65 µM
- TGI [41]: 16.3 µM
- GI50 [42]: 2.64 µM
- TGI [42]: 5.92 µM
- GI50 [43]: 15.8 µM
- TGI [43]: 29.4 µM
- GI50 [44]: 11.9 µM
- TGI [44]: 26.4 µM
- GI50 [45]: 9.85 µM
- TGI [45]: 21.7 µM
- GI50 [46]: 12.1 µM
- TGI [46]: 25.1 µM
- GI50 [47]: 11 µM
- TGI [47]: 24.9 µM
- GI50 [48]: 11.6 µM
- TGI [48]: 23.9 µM
- GI50 [49]: 2.02 µM
- TGI [49]: 3.78 µM
- GI50 [50]: 6.92 µM
- TGI [50]: 19.2 µM
- GI50 [51]: 4.06 µM
- TGI [51]: 19.2 µM
- GI50 [52]: 6.56 µM
- TGI [52]: 18.8 µM
- GI50 [53]: 10.9 µM
- TGI [53]: 23 µM
- GI50 [54]: 4.7 µM
- TGI [54]: 14.9 µM
- GI50 [55]: 11.1 µM
- TGI [55]: 23.4 µM
- GI50 [56]: 15.7 µM
- TGI [56]: 29.9 µM
- GI50 [57]: 3.64 µM
- TGI [57]: 10 µM
- GI50 [58]: 5.29 µM
- TGI [58]: 17.1 µM

Compound: CCOCC1(COCC)CCC(c2[nH]ncc2CN(C)CCNC)CC1
- GI50 [1]: 2.77 µM
- TGI [1]: > 100 µM
- GI50 [2]: 35.2 µM
- TGI [2]: > 100 µM
- GI50 [3]: > 100 µM
- TGI [3]: > 100 µM
- GI50 [4]: 64.8 µM
- TGI [4]: > 100 µM
- GI50 [6]: 2.52 µM
- TGI [6]: 57.4 µM
- GI50 [7]: > 100 µM
- TGI [7]: > 100 µM
- GI50 [8]: 32.7 µM
- TGI [8]: > 100 µM
- GI50 [9]: 2.03 µM
- TGI [9]: > 100 µM
- GI50 [10]: 58.7 µM
- TGI [10]: > 100 µM
- GI50 [11]: 20.5 µM
- TGI [11]: > 100 µM
- GI50 [12]: > 100 µM
- TGI [12]: > 100 µM
- GI50 [13]: 0.123 µM
- TGI [13]: 2.68 µM
- GI50 [14]: > 100 µM
- TGI [14]: > 100 µM
- GI50 [15]: > 100 µM
- TGI [15]: > 100 µM
- GI50 [16]: > 100 µM
- TGI [16]: > 100 µM
- GI50 [17]: 8.56 µM
- TGI [17]: > 100 µM
- GI50 [18]: 5.94 µM
- TGI [18]: > 100 µM
- GI50 [19]: 42.5 µM
- TGI [19]: > 100 µM
- GI50 [20]: > 100 µM
- TGI [20]: > 100 µM
- GI50 [21]: 29.9 µM
- TGI [21]: > 100 µM
- GI50 [22]: > 100 µM
- TGI [22]: > 100 µM
- GI50 [23]: > 100 µM
- TGI [23]: > 100 µM
- GI50 [24]: 43.4 µM
- TGI [24]: > 100 µM
- GI50 [25]: 1.75 µM
- TGI [25]: > 100 µM
- GI50 [26]: 11.5 µM
- TGI [26]: 34.5 µM
- GI50 [27]: 71 µM
- TGI [27]: > 100 µM
- GI50 [28]: 47.1 µM
- TGI [28]: > 100 µM
- GI50 [29]: 28.5 µM
- TGI [29]: > 100 µM
- GI50 [30]: > 100 µM
- TGI [30]: > 100 µM
- GI50 [31]: 10.7 µM
- TGI [31]: 35.8 µM
- GI50 [32]: > 100 µM
- TGI [32]: > 100 µM
- GI50 [33]: 12.6 µM
- TGI [33]: 33.3 µM
- GI50 [34]: > 100 µM
- TGI [34]: > 100 µM
- GI50 [35]: 1.81 µM
- TGI [35]: 35.6 µM
- GI50 [36]: 17.6 µM
- TGI [36]: 44.7 µM
- GI50 [38]: 16.3 µM
- TGI [38]: 38.3 µM
- GI50 [39]: 6.65 µM
- TGI [39]: > 100 µM
- GI50 [40]: 18.6 µM
- TGI [40]: > 100 µM
- GI50 [41]: 10.4 µM
- TGI [41]: > 100 µM
- GI50 [42]: 53.3 µM
- TGI [42]: > 100 µM
- GI50 [43]: 11.3 µM
- TGI [43]: 29.3 µM
- GI50 [44]: > 100 µM
- TGI [44]: > 100 µM
- GI50 [45]: > 100 µM
- TGI [45]: > 100 µM
- GI50 [59]: 0.386 µM
- TGI [59]: 9.85 µM
- GI50 [46]: 3.69 µM
- TGI [46]: > 100 µM
- GI50 [47]: > 100 µM
- TGI [47]: > 100 µM
- GI50 [48]: 14.8 µM
- TGI [48]: 30.2 µM
- GI50 [49]: 20 µM
- TGI [49]: > 100 µM
- GI50 [50]: 8.61 µM
- TGI [50]: 36.3 µM
- GI50 [51]: 18.1 µM
- TGI [51]: > 100 µM
- GI50 [52]: 96.8 µM
- TGI [52]: > 100 µM
- GI50 [53]: 90.4 µM
- TGI [53]: > 100 µM
- GI50 [54]: 4.11 µM
- TGI [54]: > 100 µM
- GI50 [55]: > 100 µM
- TGI [55]: > 100 µM
- GI50 [56]: > 100 µM
- TGI [56]: > 100 µM
- GI50 [57]: 27.3 µM
- TGI [57]: > 100 µM
- GI50 [58]: 29.6 µM
- TGI [58]: > 100 µM
